Our source for the Fa and Other values is ChEMBL document CHEMBL1133190, “SPR biosensor studies of the direct interaction between 27 drugs and a liposome surface: correlation with fraction absorbed in humans” (J Med Chem, 2000).

Test system in one data set: not listed separately
Nature of the data set: Estimation of fraction absorbed (Fa) in the human intestine using biosensor technology. In kind it is ADME, organism-based. Particulars: in vivo.
Turning to `NC(N)=O` [UREA], the Fa is 100%.

For `COc1ccc2cc([C@H](C)C(=O)O)ccc2c1` [NAPROXEN], the Fa is 100%.

As to `CNCCCN1c2ccccc2CCc2ccccc21` [DESIPRAMINE], the Fa was 100%.

Consider `OC[C@H]1OC(O)[C@H](O)[C@@H](O)[C@@H]1O` (stereo partly specified) [DEXTROSE], for which the Fa was 100%.

As to `CN1CC(=O)NC1=N` [CREATININE], the Fa is 100%.

Take `NC(=O)N1c2ccccc2C=Cc2ccccc21` [CARBAMAZEPINE]: the Fa was 100%.

Regarding `CC(C(=O)O)c1cccc(C(=O)c2ccccc2)c1` (stereo unspecified) [KETOPROFEN], the Fa is 100%.

In the case of `CC1(C)S[C@@H]2[C@H](NC(=O)[C@H](N)c3ccc(O)cc3)C(=O)N2[C@H]1C(=O)O` [AMOXICILLIN], the Fa is 90%.

For `CC(C)NCC(O)COc1cccc2ccccc12` (stereo unspecified) [PROPRANOLOL], the Fa was 100%.

For `NS(=O)(=O)c1cc2c(cc1Cl)NCNS2(=O)=O` [HYDROCHLOROTHIAZIDE], the Fa was 55%.

With `Cc1cc(=O)n(-c2ccccc2)n1C` [ANTIPYRINE], the Fa was 100%.

In the case of `COc1ccc(CCN(C)CCCC(C#N)(c2ccc(OC)c(OC)c2)C(C)C)cc1OC` (stereo unspecified), the Fa was 100%.

`NS(=O)(=O)c1cc(C(=O)O)c(NCc2ccco2)cc1Cl` [FUROSEMIDE]: the Fa was 50%.

Consider `CC(C)C[C@H](N)C(=O)O` [LEUCINE], for which the Fa was 100%.

Another data set deals with Liposome. The data set can be described thus: (§1) Binding to POPC/GMI liposomes using biosensor system. The format is functional.
Details: not given
In turn, `C=CCOc1ccccc1OCC(O)CNC(C)C` (stereo unspecified) displayed an Other of 277.

As for `C=CCc1ccccc1OCC(O)CNC(C)C` (stereo unspecified), the Other worked out at 480.

`CC(C)NCC(O)COc1ccc(CC(N)=O)cc1` (stereo unspecified) had an Other of 38.

For the compound `OC[C@H]1O[C@H](OC[C@H]2O[C@H](O[C@]3(CO)O[C@H](CO)[C@@H](O)[C@@H]3O)[C@H](O)[C@@H](O)[C@@H]2O)[C@H](O)[C@@H](O)[C@H]1O`, the Other came out at 34.

For the compound `CNCCCN1c2ccccc2CCc2ccccc21` [DESIPRAMINE], the Other was 1200.

`OC[C@@H](O)[C@@H](O)[C@H](O)[C@H](O)CO`: the Other came out at 29.

Turning to `OC[C@H]1OC(O)[C@H](O)[C@@H](O)[C@@H]1O` (stereo partly specified) [DEXTROSE], the Other came to 10.

`CC(C)NCC(O)COc1cccc2[nH]ccc12` (stereo unspecified) returned an Other of 314.

As for `NC[C@H]1CC[C@H](C(=O)O)CC1`, the Other turned out to be 14.

For `NC(=O)N1c2ccccc2C=Cc2ccccc21` [CARBAMAZEPINE], the Other was determined as 144.

On to `OC[C@H]1O[C@@H](O[C@@H]2[C@@H](CO)O[C@](O)(CO)[C@H]2O)[C@H](O)[C@@H](O)[C@H]1O`, for which the Other amounted to 29.

Turning to `CC(C(=O)O)c1cccc(C(=O)c2ccccc2)c1` (stereo unspecified) [KETOPROFEN], the Other stood at 101.

Take `CC1(C)S[C@@H]2[C@H](NC(=O)[C@H](N)c3ccc(O)cc3)C(=O)N2[C@H]1C(=O)O` [AMOXICILLIN]: the Other was 9.

The compound `CC(C)NCC(O)COc1cccc2ccccc12` (stereo unspecified) [PROPRANOLOL] returned an Other of 839.

With `NS(=O)(=O)c1cc2c(cc1Cl)NCNS2(=O)=O` [HYDROCHLOROTHIAZIDE], the Other worked out at 95.

Turning to `Cc1cc(=O)n(-c2ccccc2)n1C` [ANTIPYRINE], the Other was 12.

As to `CCN1CCCC1CNC(=O)c1cc(S(N)(=O)=O)ccc1OC` (stereo unspecified), the Other is 78.

For the compound `NS(=O)(=O)c1cc(C(=O)O)c(NCc2ccco2)cc1Cl` [FUROSEMIDE], the Other was 92.

The test system of the next data set is Liposome. The description is as §1.
Details: not given
`NC(N)=O` [UREA] displayed an Other of 26.

For the compound `COc1ccc2cc([C@H](C)C(=O)O)ccc2c1` [NAPROXEN], the Other is 183.

In the case of `O=C(O)P(=O)(O)O`, the Other came to 62.

Compound `O=C(O)c1cc(/N=N/c2ccc(S(=O)(=O)Nc3ccccn3)cc2)ccc1O` gave an Other of 348.

With `CN1CC(=O)NC1=N` [CREATININE], the Other came out at 13.

`COCCc1ccc(OCC(O)CNC(C)C)cc1` (stereo unspecified): the Other came out at 179.

Compound `CC(C)C[C@H](N)C(=O)O` [LEUCINE] had an Other of 11.

Take `CC(C)(C)NCC(O)c1cc(O)cc(O)c1` (stereo unspecified): the Other is 117.

The subject of a further data set is Liposome. The data set can be described thus: (§2) Binding to POPC (palmitoyl-oleolyl-phosphatidyl-choline) liposomes using biosensor system.
Details: not given
Take `NC(N)=O` [UREA]: the Other worked out at 23.

In turn, `COc1ccc2cc([C@H](C)C(=O)O)ccc2c1` [NAPROXEN] had an Other of 109.

`O=C(O)P(=O)(O)O` returned an Other of 32.

As for `O=C(O)c1cc(/N=N/c2ccc(S(=O)(=O)Nc3ccccn3)cc2)ccc1O`, the Other is 241.

`CN1CC(=O)NC1=N` [CREATININE]: the Other was 22.

The compound `COCCc1ccc(OCC(O)CNC(C)C)cc1` (stereo unspecified) had an Other of 82.

Regarding `CC(C)C[C@H](N)C(=O)O` [LEUCINE], the Other turned out to be 18.

Turning to `CC(C)(C)NCC(O)c1cc(O)cc(O)c1` (stereo unspecified), the Other was found to be 47.

For a further data set, the system named is Liposome. The description is as §2.
Details: not given
The format is functional.
`C=CCOc1ccccc1OCC(O)CNC(C)C` (stereo unspecified) gave an Other of 120.

The compound `C=CCc1ccccc1OCC(O)CNC(C)C` (stereo unspecified) displayed an Other of 297.

Take `CC(C)NCC(O)COc1ccc(CC(N)=O)cc1` (stereo unspecified): the Other was determined as 24.

On to `OC[C@H]1O[C@H](OC[C@H]2O[C@H](O[C@]3(CO)O[C@H](CO)[C@@H](O)[C@@H]3O)[C@H](O)[C@@H](O)[C@@H]2O)[C@H](O)[C@@H](O)[C@H]1O`, for which the Other stood at 24.

In turn, `CNCCCN1c2ccccc2CCc2ccccc21` [DESIPRAMINE] had an Other of 1010.

Consider `OC[C@@H](O)[C@@H](O)[C@H](O)[C@H](O)CO`, for which the Other is 22.

The compound `OC[C@H]1OC(O)[C@H](O)[C@@H](O)[C@@H]1O` (stereo partly specified) [DEXTROSE] came in with an Other of 18.

In the case of `CC(C)NCC(O)COc1cccc2[nH]ccc12` (stereo unspecified), the Other amounted to 142.

In the case of `NC[C@H]1CC[C@H](C(=O)O)CC1`, the Other came out at 20.

In turn, `NC(=O)N1c2ccccc2C=Cc2ccccc21` [CARBAMAZEPINE] displayed an Other of 70.

`OC[C@H]1O[C@@H](O[C@@H]2[C@@H](CO)O[C@](O)(CO)[C@H]2O)[C@H](O)[C@@H](O)[C@H]1O` had an Other of 22.

`CC(C(=O)O)c1cccc(C(=O)c2ccccc2)c1` (stereo unspecified) [KETOPROFEN] registered an Other of 62.

For `CC1(C)S[C@@H]2[C@H](NC(=O)[C@H](N)c3ccc(O)cc3)C(=O)N2[C@H]1C(=O)O` [AMOXICILLIN], the Other is 17.

Regarding `CC(C)NCC(O)COc1cccc2ccccc12` (stereo unspecified) [PROPRANOLOL], the Other was determined as 683.

Consider `NS(=O)(=O)c1cc2c(cc1Cl)NCNS2(=O)=O` [HYDROCHLOROTHIAZIDE], for which the Other worked out at 60.

In the case of `Cc1cc(=O)n(-c2ccccc2)n1C` [ANTIPYRINE], the Other turned out to be 19.

The compound `CCN1CCCC1CNC(=O)c1cc(S(N)(=O)=O)ccc1OC` (stereo unspecified) displayed an Other of 47.

`NS(=O)(=O)c1cc(C(=O)O)c(NCc2ccco2)cc1Cl` [FUROSEMIDE] yielded an Other of 56.
